Measurements taken from patent US7544512B2, “Method of producing insulinotropic GLP-1 (7-36) polypeptide and/or GLP-1 analogs” (Shanhai Hua Yi Bio-Tech Lab, priority 2001, dated 2009).

Assays:
Type in all cases: in vivo
blood glucose [1] = test: Comparison of reducing blood glucose effect in Kun Ming mice; details: fasted 4 hours, glucose 2 g/kg intraperitoneally, 50 ng/Kg peptide, 30 minutes; for Rate (reduction of blood glucose): versus control
Description: Kun Ming mice (40 in total, male, 23 g body weight/mouse) were divided into 4 groups. After fasting for 4 hours, each mouse was injected with glucose (2 g/kg body weight) intraperitoneally. Then mice in the testing group were rejected with 50 ng/Kg of GLP-1 (7-36), GLP-1 (7-36)NH2 (BACHEM) and GLP-1 (7-37)COOH (BACHEM) respectively, while mice in the control group were rejected with 0.9% NaCl saline. Blood sample was collected at the zero time and 30 minutes later for the analysis.

insulin secretion = test: Effect on insulin secretion in mice (serum insulin, radioimmunoassay); details: healthy C57/BL/6J mice, 2 μg injected into abdominal cavity, blood at 0, 5, 15, 30, 60 min, FIG. 9
Description: Healthy C57/BL/6J mice were purchased from the Shanghai Laboratory Animal Center of Chinese Academy of Sciences. The mice were divided into three groups with 6 mice in each group. The placebo group of mice received 200 μl of saline injected into their abdominal cavity, while the testing group received 2 μg of GLP-1 (7-36) and the positive control group received 2 μg of GLP-1 (7-36)NH2 (BACHEM). The moment when the animals received the injection was set as time zero. 50 μl of blood were drawn from the veins at angulus oculi with a graduated capillary which had been rinsed with heparin and then dried. The blood samples were subsequently drawn at 5, 15, 30 and 60 minutes. The blood samples were immediately mixed with 50 μl of saline in a micro-centrifuge tube. The mixture was centrifuged at 3000 rpm to remove erythrocytes. The serum was used to measure insulin concentration.
The radioimmunoassay kit (Shanghai Institute of Biological Products, Chinese Ministry of Health) for insulin was used to measure the effect of GLP-1 (7-36) on insulin secretion. […] This observation indicates the administration of either GLP-1 (7-36) or GLP-1 (7-36)NH2 enhances the secretion of insulin in mice.

blood glucose [2] = test: Effect on blood glucose level in glucose-loaded C57/BL/6J mice; details: C57/BL/6J mice fasted overnight, 200 μl of 40% glucose plus 2 μg peptide into abdominal cavity, 0, 30, 60, 120 min, FIG. 11
Description: Healthy C57/BL/6J mice were purchased from Shanghai Laboratory Animal Center of Chinese Academy of Sciences. The mice were divided into four groups with 6 mice in each group. Mice fasted overnight were injected by abdominal cavity. The placebo group were injected with 200 μl of 40% glucose solution, the testing group were injected with 200 μl of 40% glucose solution plus 2 μg of GLP-1 (7-36), the positive control group(I) were injected with 200 μl of 40% glucose solution plus 2 μg of GLP-1 (7-36)NH2 (Sigma), and the positive control group(II) were injected with 200 μl of 40% glucose solution plus 2 μg of GLP-1 (7-37) (Sigma). The moment when the animals received the injection was set as time zero. After the injection, 20 μl of blood sample were immediately drawn from optic sinus of each mouse with a heparin-treated capillary. The blood samples were immediately mixed with 300 μl of saline in a micro-centrifuge tube. The mixture was centrifuged at 3000 rpm to remove erythrocytes. The serum was used to measure serum glucose concentration. This procedure was repeated at the 30th, 60th and 120th minutes.
The serum blood glucose concentration was measured by a commercial kit (Shanghai Institute of Biological Products, Chinese Ministry of Health).

C-peptide secretion = test: Effect on C-peptide secretion in mice (serum C-peptide, radioimmunoassay); details: C57/BL/6J mice, 10 μg injected into abdominal cavity, FIG. 10
Description: As described in Example 14, C57/BL/6J mice were divided into two groups with the placebo group receiving 200 μl of saline injected into abdominal cavity and the testing group receiving 10 μg of GLP-1 (7-36). A radioimmunoassay kit (Shanghai Institute of Biological Products, Chinese Ministry of Health) for C-peptide was used to measure the effect of GLP-1 (7-36) on C-peptide secretion.

Row | Substance | Blood Glucose (blood glucose [1]) [mmol/L] | Rate (reduction of blood glucose) (blood glucose [1]) [%] | serum insulin concentration (insulin secretion) | serum blood glucose concentration (blood glucose [2]) | serum C-peptide concentration (C-peptide secretion)
1 | GLP-1 (7-36)NH2: natural GLP-1 form of 30 amino acid residues with C-terminal amidated; positive control from BACHEM or Sigma | 8.69 | 36.8 | significant increase | no obvious rise from the normal level | –
2 | GLP-1 (7-37): natural GLP-1 form of 31 amino acid residues; positive control from Sigma or BACHEM (HAEGTFTSDVSSYLEGQAAKEFIAWLVKGRG; homo sapiens) | 6.77 | 50.7 | – | no obvious rise from the normal level | –
3 | His-Ala-Glu-Gly-Thr-Phe-Thr-Ser-Asp-Val-Ser-Ser-Tyr-Leu-Glu-Gly-Gln-Ala-Ala-Lys-Glu-Phe-Ile-Ala-Trp-Leu-Val-Lys-Gly-Arg−OH (HAEGTFTSDVSSYLEGQAAKEFIAWLVKGR; homo sapiens) [GLP-1 (7-36)] | 6.51 | 50.4 | significant increase | no obvious rise from the normal level | significant increase
